{"source": "paper PMC13360702", "about": "“An Agonist/Antagonist Photo‐Switchable Vitamin D Mimetic Enables Bidirectional Optical Control of VDR” (Angewandte Chemie (International Ed. in English), 2026)", "target": "T1, VDR (Homo sapiens, UniProt P11473)", "T1 construct": "-CMV-VDR-LBD coding for the hinge region and; expressed in transfected cells; host or cells: HEK293T", "T1 sequence (P11473 127-423 limits assumed)": "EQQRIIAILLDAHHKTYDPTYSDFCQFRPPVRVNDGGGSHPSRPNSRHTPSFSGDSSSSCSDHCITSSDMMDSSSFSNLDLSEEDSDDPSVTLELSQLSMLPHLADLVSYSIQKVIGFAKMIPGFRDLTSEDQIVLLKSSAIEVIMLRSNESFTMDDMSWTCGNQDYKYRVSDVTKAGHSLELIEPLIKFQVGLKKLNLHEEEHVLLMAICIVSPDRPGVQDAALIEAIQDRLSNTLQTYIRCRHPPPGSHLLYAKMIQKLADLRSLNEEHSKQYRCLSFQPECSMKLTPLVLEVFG", "test": "fluorescent (mCherry) reporter gene assay, in‐cell VDR activation over time", "type": "cell-based", "settings": "1 µM", "experimental": "To evaluate the potential of 10 for in‐cell control of VDR activity, we determined its light‐dependent effect over time (Figure 3a) using VDR‐induced expression of the fluorescent protein mCherry as reporter for non‐invasive monitoring. Under illumination with a Cell‐Disco [24]\nFIGURE 3 Optical control of VDR activity with photo‐vitD (10). (a) 10 (1 µM) enabled light‐dependent in‐cell activation of VDR in a fluorescent (mCherry) reporter gene assay. Gray curve: dark; blue curve: Cell‐Disco (370 nm; 100 ms/10 s); yellow curve: dark for 10 h, then Cell‐Disco (370 nm); magenta curve: Cell‐Disco (370 nm) for 10 h, then Cell‐Disco (450 nm). Lines are the mean, shadows are S.E.M.; n = 6. (b–d) Phenotypic model of bone formation using human […] (ASC52telo hTERT cells) and cyclic treatment with dexamethasone, 2‐phospho‐L‐ascorbic acid, and glycerol 2‐phosphate over 15 days to induce osteogenesis. Alkaline phosphatase (ALP) activity (b) and von Kossa staining of hydroxyapatite (c; representative photomicrographs in d) were used as markers of osteogenesis. Experiments were performed in the dark (gray bars) and using a Cell‐Disco (370 nm, 100 ms/10 s; blue bars). Data are the mean±SD, n = 6. * p<0.05, ** p<0.01, *** p<0.001 (vs. respective dark or illuminated DMSO (diff.) ctrl or as indicated; ANOVA with Dunnett's multiple comparisons test).\nGal4-hybrid reporter gene assays. […] After 14−16 h incubation, luciferase activity was measured using the Dual -Glo Luciferase Assay System (Promega) according to the manufacturer’s protocol on a Tecan Spark luminometer (Tecan Deutschland GmbH, Crailsheim, Germany). […] EC 50 and IC50 values were calculated by fitting dose−response data with the equation “[agonist] vs response − variable slope (four parameters)” or “[inhibitor] vs response − variable slope (four parameters)” in GraphPad Prism (version 7, GraphPad software, La Jolla, CA, USA). […]\nFluorescent Reporter Gene Assay. The fluorescence reporter gene assay was performed in HEK293T […]", "data": [{"smiles": "CCCc1cc(C(O)(CC)CC)ccc1-c1ccc(/N=N/c2ccc3cc(C(=O)O)ccc3c2)cc1C", "note": "[compound 10]", "values": [{"measurement": "VDR‐induced mCherry fluorescence over time", "setting": "Cell‐Disco 370 nm for 10 h, then switched back to (E)‐state with 450 nm light", "value": "the increase in mCherry fluorescence ceased"}, {"measurement": "VDR‐induced mCherry fluorescence over time", "setting": "Cell‐Disco 370 nm, 100 ms/10 s ((Z)‐state)", "value": "mCherry fluorescence constantly increased"}, {"measurement": "VDR‐induced mCherry fluorescence over time", "setting": "without illumination (dark)", "value": "no increase in fluorescence"}]}]}
